In patent US5644025A, “Tetrapeptides deriving from dalbaheptide antibiotics” (Gruppo Lepetit SPA, priority 1990, dated 1997):
Values after ≈ are worked out from the molar mass of the structure shown.

How the values were obtained:
Assay in all cases: in vitro antibacterial activity, MIC by dilution test in microtiter
E. faecalis clin. isol. = format: cell-based, Enterococcus faecalis; conditions: for MIC: strain L 502, Mueller-Hinton broth, inoculum about 5×10^5 cfu/ml, 0.01% bovine serum albumin, 37° C., 18-24 hours
Procedure: (§1) The in vitro antibacterial activity of the compounds is determined by means of standard […] tests in microtiter. Iso-Sensitest broth (Oxoid) is used for all bacteria except streptococci (Todd-Wewitt broth, Difco) and enterococci (Mueller-Hinton, Difco). Broth cultures are diluted so that the final inoculum is about 5×10^5 cfu/ml (colony forming units per ml). All broth microdilution MICs are performed in the presence of 0.01% bovine serum albumin (Pentax fraction V, Sigma).

[1] = system: S. epidermidis ATCC 12,228; format: cell-based; conditions: strain L 147; Iso-Sensitest broth, inoculum about 5×10^5 cfu/ml, 0.01% bovine serum albumin, 37° C., 18-24 hours
Procedure: as §1

[2] = system: Enterococcus faecalis ATCC 7,080; format: cell-based; conditions: strain L 149; Mueller-Hinton broth, inoculum about 5×10^5 cfu/ml, 0.01% bovine serum albumin, 37° C., 18-24 hours
Procedure: as §1

Staph. aureus Tour = format: cell-based; conditions: strain L 165; Iso-Sensitest broth, inoculum about 5×10^5 cfu/ml, 0.01% bovine serum albumin, 37° C., 18-24 hours
Procedure: as §1

S. aureus Smith = format: cell-based; conditions: strain L 819; Iso-Sensitest broth, inoculum about 5×10^5 cfu/ml, 0.01% bovine serum albumin, 37° C., 18-24 hours
Procedure: as §1

Strep. pneumoniae UC41 = format: cell-based; conditions: strain L 44; Todd-Wewitt broth, inoculum about 5×10^5 cfu/ml, 0.01% bovine serum albumin, 37° C., 18-24 hours
Procedure: as §1

[3] = system: S. epidermidis clin. isol.; format: cell-based; conditions: strain L 533; Iso-Sensitest broth, inoculum about 5×10^5 cfu/ml, 0.01% bovine serum albumin, 37° C., 18-24 hours
Procedure: as §1

Strep. pyogenes C203 = format: cell-based; conditions: strain L 49; Todd-Wewitt broth, inoculum about 5×10^5 cfu/ml, 0.01% bovine serum albumin, 37° C., 18-24 hours
Procedure: as §1

S. aureus clin. isol. = format: cell-based; conditions: strain L 561; Iso-Sensitest broth, inoculum about 5×10^5 cfu/ml, 0.01% bovine serum albumin, 37° C., 18-24 hours
Procedure: as §1

[4] = system: S. haemolyticus clin, isol.; format: cell-based; conditions: strain L 602; Iso-Sensitest broth, inoculum about 5×10^5 cfu/ml, 0.01% bovine serum albumin, 37° C., 18-24 hours
Procedure: as §1

Compound	activity against a clinical isolate of Enterococcus faecalis (in words) (E. faecalis clin. isol.)	MIC (E. faecalis clin. isol.) [µg/mL]	MIC [1] [µg/mL]	MIC [2] [µg/mL]	MIC (Staph. aureus Tour) [µg/mL]	MIC (S. aureus Smith) [µg/mL]	MIC (Strep. pneumoniae UC41) [µg/mL]	MIC [3] [µg/mL]	MIC (Strep. pyogenes C203) [µg/mL]	MIC (S. aureus clin. isol.) [µg/mL]	MIC [4] [µg/mL]
teicoplanin	resistant	> 128	8	0.13	0.13	0.25	0.13	8	0.13	8	32
(L-phenylalanyl)^3 -(D-lysyl)^15 -aglucoteicoplanin dalbaheptide methyl ester	surprisingly active	16	0.13	0.5	0.13	0.13	0.13	0.13	0.25	0.06	0.5
N[C@H]1C(=O)N[C@@H]2Cc3ccc(c(Cl)c3)Oc3cc4cc(c3O)Oc3ccc(cc3Cl)[C@@H](O)[C@@H]3NC(=O)[C@H](NC(=O)[C@@H]4NC(=O)[C@@H](NC2=O)c2cc(O)cc(c2)Oc2cc1ccc2O)c1ccc(O)c(c1)-c1c(O)cc(O)cc1[C@@H](C(=O)O)NC3=O [teicoplanin aglycon]	resistant	> 128	0.06 (≈ 0.05 µM)	0.13 (≈ 0.108 µM)	0.13 (≈ 0.108 µM)	0.06 (≈ 0.05 µM)	0.13 (≈ 0.108 µM)	0.016 (≈ 0.0133 µM)	0.13 (≈ 0.108 µM)	0.13 (≈ 0.108 µM)	0.25 (≈ 0.209 µM)
